Active and inactive are the calls of the source. Cut-off read from the data, not from the text of the source, for most assays here: actives have a measured Kd and inactives only a lower limit.
Legend:
[1] = biological target: S-adenosylmethionine synthase isoform type-2 (Homo sapiens, UniProt P31153)
[2] = biological target: T1, Serine/threonine-protein kinase STK11 (Homo sapiens, UniProt Q15831)
T1 sequence (Q15831 whole entry): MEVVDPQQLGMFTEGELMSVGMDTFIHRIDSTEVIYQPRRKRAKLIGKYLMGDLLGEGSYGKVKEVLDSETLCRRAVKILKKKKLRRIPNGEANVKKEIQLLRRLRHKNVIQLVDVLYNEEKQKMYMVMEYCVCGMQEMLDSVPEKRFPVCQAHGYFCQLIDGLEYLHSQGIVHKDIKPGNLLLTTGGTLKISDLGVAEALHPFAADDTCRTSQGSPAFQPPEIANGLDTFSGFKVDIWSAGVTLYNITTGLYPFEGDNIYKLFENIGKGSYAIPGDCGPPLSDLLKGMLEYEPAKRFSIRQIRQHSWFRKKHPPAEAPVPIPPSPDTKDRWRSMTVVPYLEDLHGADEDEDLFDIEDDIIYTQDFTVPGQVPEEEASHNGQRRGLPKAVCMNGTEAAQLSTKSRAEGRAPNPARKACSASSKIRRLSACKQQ

[3] = biological target: Ribosomal protein S6 kinase alpha-1 (Homo sapiens, UniProt Q15418)
Sequence of Ribosomal protein S6 kinase alpha-1 (Q15418 whole entry): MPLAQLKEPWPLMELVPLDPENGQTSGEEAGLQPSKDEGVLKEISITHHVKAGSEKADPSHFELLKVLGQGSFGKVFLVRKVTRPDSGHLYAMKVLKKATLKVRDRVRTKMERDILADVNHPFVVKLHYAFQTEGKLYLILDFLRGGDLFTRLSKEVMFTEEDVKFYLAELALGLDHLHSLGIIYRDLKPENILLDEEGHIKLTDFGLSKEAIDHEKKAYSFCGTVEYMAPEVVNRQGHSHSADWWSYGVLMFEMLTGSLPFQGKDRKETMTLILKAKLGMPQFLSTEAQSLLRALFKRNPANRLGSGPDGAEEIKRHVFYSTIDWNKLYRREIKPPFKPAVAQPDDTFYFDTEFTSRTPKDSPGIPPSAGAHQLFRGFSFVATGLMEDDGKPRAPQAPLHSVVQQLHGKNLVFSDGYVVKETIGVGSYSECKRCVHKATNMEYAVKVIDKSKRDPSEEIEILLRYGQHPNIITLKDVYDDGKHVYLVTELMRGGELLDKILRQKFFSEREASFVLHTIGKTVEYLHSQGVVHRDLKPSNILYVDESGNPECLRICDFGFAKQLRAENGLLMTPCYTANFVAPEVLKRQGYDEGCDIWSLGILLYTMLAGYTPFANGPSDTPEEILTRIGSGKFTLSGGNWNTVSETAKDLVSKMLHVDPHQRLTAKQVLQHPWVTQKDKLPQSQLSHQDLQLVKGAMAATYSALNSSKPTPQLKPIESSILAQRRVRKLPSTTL

[4] = biological target: Tyrosine-protein kinase Fyn (Homo sapiens, UniProt P06241)
Sequence of Tyrosine-protein kinase Fyn (P06241 whole entry): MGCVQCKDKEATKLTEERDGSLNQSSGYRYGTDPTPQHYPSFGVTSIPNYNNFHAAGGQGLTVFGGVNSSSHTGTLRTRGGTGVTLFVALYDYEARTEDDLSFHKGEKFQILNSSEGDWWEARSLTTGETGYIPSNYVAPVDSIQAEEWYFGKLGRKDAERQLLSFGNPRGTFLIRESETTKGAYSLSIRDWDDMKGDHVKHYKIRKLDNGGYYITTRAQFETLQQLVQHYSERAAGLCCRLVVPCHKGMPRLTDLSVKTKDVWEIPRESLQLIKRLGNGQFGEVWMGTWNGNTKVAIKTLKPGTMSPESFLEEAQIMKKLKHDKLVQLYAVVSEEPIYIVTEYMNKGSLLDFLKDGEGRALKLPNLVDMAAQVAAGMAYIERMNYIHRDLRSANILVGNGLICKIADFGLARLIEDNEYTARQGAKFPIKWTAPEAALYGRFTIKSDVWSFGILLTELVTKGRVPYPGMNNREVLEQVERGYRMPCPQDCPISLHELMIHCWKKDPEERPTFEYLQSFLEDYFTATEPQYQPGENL

[5] = biological target: Receptor-interacting serine/threonine-protein kinase 3 (Homo sapiens, UniProt Q9Y572)
Sequence of Receptor-interacting serine/threonine-protein kinase 3 (Q9Y572 whole entry): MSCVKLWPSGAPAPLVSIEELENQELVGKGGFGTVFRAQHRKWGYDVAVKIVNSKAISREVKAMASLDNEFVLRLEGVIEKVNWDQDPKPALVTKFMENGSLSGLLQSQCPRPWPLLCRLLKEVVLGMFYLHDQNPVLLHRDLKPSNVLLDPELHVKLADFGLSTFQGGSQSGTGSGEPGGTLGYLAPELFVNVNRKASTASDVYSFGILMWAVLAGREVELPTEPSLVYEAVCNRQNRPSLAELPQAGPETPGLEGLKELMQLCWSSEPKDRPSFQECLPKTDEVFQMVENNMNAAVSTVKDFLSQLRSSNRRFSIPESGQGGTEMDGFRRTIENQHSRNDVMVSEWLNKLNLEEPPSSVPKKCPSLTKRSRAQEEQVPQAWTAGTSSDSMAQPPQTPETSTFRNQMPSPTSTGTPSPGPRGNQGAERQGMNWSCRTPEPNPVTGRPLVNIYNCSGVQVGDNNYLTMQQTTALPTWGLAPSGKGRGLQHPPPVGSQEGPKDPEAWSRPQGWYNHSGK

[6] = biological target: TGF-beta receptor type-2 (Homo sapiens, UniProt P37173)
Sequence of TGF-beta receptor type-2 (P37173 whole entry): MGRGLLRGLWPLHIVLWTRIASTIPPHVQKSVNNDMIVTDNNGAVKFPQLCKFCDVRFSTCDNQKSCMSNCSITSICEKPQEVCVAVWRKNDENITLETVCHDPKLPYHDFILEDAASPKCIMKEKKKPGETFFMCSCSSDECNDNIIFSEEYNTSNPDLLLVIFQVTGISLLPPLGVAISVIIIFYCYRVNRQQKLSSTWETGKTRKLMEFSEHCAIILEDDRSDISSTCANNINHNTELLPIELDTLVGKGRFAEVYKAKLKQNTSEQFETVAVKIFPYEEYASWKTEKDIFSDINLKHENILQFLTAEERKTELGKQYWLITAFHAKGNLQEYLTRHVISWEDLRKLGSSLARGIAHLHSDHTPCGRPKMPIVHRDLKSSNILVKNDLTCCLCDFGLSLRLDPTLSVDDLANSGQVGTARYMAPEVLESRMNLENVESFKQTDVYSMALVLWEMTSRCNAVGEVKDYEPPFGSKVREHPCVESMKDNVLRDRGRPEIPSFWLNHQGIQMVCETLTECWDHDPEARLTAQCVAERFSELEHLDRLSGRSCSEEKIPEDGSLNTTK

[7] = biological target: Tyrosine-protein kinase Lyn (Homo sapiens, UniProt P07948)
Sequence of Tyrosine-protein kinase Lyn (P07948 whole entry): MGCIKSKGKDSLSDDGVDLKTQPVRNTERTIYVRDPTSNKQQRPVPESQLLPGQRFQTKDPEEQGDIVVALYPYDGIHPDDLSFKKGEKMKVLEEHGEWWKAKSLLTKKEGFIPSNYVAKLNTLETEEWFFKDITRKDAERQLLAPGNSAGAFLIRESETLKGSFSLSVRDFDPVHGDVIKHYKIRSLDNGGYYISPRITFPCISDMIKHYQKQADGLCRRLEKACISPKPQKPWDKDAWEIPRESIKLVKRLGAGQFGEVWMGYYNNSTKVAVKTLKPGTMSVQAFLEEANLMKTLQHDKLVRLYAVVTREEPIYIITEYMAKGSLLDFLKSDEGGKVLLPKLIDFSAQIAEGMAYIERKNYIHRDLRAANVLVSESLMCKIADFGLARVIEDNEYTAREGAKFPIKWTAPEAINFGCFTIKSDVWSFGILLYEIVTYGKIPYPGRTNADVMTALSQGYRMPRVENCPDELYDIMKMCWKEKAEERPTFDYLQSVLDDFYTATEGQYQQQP

[8] = biological target: T2, Mitogen-activated protein kinase kinase kinase kinase 2 (Homo sapiens, UniProt Q12851)
T2 sequence (Q12851 whole entry): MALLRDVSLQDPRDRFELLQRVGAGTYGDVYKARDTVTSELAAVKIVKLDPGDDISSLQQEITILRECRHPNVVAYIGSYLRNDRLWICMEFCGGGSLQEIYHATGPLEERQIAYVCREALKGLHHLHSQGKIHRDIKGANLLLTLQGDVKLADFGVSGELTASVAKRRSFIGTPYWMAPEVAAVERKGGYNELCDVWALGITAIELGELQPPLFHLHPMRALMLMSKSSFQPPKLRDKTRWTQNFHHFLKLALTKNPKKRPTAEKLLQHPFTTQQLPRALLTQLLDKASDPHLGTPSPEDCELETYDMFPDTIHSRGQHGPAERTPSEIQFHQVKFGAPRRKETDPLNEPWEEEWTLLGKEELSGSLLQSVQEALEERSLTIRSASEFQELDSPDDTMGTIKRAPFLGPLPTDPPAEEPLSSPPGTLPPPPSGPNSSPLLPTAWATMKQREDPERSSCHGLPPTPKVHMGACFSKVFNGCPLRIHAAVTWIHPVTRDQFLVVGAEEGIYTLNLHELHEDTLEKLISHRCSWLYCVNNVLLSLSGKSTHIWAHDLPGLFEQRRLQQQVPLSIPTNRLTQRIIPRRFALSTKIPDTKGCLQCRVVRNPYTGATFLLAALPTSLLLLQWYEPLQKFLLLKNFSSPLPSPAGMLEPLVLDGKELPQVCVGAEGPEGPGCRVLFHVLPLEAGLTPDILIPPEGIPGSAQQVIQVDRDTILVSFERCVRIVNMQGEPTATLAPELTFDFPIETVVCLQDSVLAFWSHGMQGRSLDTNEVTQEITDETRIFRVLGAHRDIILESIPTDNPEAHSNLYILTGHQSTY

[9] = biological target: Serine/threonine-protein kinase 10 (Homo sapiens, UniProt O94804)
[10] = biological target: T3, Cyclin-G-associated kinase (Homo sapiens, UniProt O14976)
T3 sequence (O14976 whole entry): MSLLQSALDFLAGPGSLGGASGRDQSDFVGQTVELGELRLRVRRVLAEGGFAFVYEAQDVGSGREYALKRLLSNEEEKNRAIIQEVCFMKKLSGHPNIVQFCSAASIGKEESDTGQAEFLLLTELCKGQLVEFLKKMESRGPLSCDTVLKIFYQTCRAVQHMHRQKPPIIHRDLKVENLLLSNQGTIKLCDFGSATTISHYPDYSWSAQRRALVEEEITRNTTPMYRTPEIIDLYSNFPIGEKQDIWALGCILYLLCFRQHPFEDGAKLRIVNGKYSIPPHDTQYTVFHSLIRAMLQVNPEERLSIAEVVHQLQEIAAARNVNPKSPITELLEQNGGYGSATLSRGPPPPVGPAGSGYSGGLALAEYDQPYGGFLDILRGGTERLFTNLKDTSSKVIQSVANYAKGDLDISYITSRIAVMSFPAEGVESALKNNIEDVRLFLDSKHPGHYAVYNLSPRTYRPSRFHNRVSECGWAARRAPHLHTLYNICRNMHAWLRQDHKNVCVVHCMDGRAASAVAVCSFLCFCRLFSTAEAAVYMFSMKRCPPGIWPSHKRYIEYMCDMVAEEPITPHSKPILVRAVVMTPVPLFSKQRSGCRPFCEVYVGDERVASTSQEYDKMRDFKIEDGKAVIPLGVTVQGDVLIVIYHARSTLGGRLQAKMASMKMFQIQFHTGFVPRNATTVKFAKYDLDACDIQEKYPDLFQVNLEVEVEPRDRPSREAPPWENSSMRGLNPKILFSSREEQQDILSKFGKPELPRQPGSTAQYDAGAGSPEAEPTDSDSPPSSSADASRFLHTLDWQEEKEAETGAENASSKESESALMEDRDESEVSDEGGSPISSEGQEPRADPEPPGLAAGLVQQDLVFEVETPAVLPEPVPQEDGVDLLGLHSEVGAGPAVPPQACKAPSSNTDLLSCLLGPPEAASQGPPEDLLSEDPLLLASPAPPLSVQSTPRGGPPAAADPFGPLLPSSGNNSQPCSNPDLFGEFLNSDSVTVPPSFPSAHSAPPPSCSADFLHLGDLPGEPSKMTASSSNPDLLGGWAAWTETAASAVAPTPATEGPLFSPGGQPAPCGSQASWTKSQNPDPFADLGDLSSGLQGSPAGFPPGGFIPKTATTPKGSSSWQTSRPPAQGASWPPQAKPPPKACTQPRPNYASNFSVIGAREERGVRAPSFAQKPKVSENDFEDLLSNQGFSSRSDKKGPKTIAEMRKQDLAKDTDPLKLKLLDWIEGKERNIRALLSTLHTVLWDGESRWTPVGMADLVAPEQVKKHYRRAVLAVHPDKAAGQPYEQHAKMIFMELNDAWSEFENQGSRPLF

[11] = biological target: Serine/threonine-protein kinase N1 (Homo sapiens, UniProt Q16512)
Sequence of Serine/threonine-protein kinase N1 (Q16512 whole entry): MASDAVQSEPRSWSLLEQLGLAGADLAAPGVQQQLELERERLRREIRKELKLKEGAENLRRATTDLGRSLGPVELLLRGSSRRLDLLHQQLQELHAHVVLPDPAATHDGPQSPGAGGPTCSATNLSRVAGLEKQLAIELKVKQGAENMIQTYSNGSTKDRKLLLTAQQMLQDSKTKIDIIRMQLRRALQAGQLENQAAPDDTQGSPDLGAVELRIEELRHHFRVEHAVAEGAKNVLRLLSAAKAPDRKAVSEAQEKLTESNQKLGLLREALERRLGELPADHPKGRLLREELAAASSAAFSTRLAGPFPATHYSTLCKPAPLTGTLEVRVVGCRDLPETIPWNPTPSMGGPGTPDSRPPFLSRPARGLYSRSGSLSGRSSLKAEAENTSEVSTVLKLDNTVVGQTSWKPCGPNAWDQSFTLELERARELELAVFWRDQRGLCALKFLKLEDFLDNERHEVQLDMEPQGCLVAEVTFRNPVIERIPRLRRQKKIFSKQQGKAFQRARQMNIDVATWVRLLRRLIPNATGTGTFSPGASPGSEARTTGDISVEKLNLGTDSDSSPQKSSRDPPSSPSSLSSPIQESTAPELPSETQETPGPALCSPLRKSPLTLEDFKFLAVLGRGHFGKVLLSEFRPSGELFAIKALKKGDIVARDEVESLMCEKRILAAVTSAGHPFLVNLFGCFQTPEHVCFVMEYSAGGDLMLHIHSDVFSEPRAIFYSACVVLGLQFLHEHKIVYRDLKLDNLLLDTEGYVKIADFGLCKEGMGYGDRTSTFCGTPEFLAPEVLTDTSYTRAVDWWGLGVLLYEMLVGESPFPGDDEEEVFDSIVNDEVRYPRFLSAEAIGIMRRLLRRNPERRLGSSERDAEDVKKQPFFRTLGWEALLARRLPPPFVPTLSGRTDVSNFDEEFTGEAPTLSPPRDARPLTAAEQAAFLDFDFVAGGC
Note: in the data inactive means no Kd found up to 30 µM.

Sequence of S-adenosylmethionine synthase isoform type-2 (P31153 whole entry, canonical isoform): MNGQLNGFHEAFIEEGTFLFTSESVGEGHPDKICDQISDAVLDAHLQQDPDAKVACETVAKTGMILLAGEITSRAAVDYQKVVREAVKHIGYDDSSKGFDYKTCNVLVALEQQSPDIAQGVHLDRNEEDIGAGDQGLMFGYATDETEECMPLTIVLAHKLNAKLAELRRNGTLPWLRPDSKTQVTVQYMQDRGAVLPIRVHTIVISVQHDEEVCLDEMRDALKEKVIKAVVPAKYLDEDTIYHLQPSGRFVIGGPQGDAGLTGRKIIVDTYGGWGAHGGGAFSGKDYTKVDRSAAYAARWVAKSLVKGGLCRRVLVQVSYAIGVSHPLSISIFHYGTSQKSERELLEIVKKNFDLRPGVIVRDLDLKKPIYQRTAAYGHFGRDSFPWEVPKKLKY

Kd [1]	Kd [2]	Kd [3]	Kd [4]	Kd [5]	Kd [6]	Kd [7]	Kd [8]	Kd [9]	Kd [10]	Kd [11]	SMILES
> 30 µM (inactive)	> 30 µM (inactive)	> 30 µM (inactive)	> 30 µM (inactive)	> 30 µM (inactive)	> 30 µM (inactive)	> 30 µM (inactive)	> 30 µM (inactive)	> 30 µM (inactive)	> 30 µM (inactive)	> 30 µM (inactive)	CNC(=O)c1ccc(C)c(-n2c(C)cc(OCc3ccc(F)cc3F)c(Br)c2=O)c1 [PH-797804]
> 30 µM (inactive)	> 30 µM (inactive)	> 30 µM (inactive)	> 30 µM (inactive)	0.368 µM (active)	> 30 µM (inactive)	> 30 µM (inactive)	> 30 µM (inactive)	> 30 µM (inactive)	> 30 µM (inactive)	> 30 µM (inactive)	CNC(=O)c1cc(Oc2ccc(NC(=O)Nc3ccc(Cl)c(C(F)(F)F)c3)c(F)c2)ccn1 [REGORAFENIB]
> 30 µM (inactive)	> 30 µM (inactive)	> 30 µM (inactive)	> 30 µM (inactive)	> 30 µM (inactive)	> 30 µM (inactive)	> 30 µM (inactive)	> 30 µM (inactive)	> 30 µM (inactive)	0.658 µM (active)	> 30 µM (inactive)	CN(C)C(=O)c1cc2cnc(Nc3ccc(N4CCNCC4)cn3)nc2n1C1CCCC1 [RIBOCICLIB]
> 30 µM (inactive)	> 30 µM (inactive)	> 30 µM (inactive)	> 30 µM (inactive)	> 30 µM (inactive)	> 30 µM (inactive)	> 30 µM (inactive)	> 30 µM (inactive)	> 30 µM (inactive)	> 30 µM (inactive)	> 30 µM (inactive)	COc1cc(OC)c(/C=C/S(=O)(=O)Cc2ccc(OC)c(NCC(=O)O)c2)c(OC)c1 [RIGOSERTIB]
> 30 µM (inactive)	> 30 µM (inactive)	> 30 µM (inactive)	> 30 µM (inactive)	1.17 µM (active)	> 30 µM (inactive)	2.48 µM (active)	> 30 µM (inactive)	> 30 µM (inactive)	0.176 µM (active)	> 30 µM (inactive)	CNC(=O)CN1CCC(Oc2cc3c(Nc4cccc(Cl)c4F)ncnc3cc2OC)CC1 [SAPITINIB]
> 30 µM (inactive)	> 30 µM (inactive)	> 30 µM (inactive)	> 30 µM (inactive)	> 30 µM (inactive)	> 30 µM (inactive)	> 30 µM (inactive)	> 30 µM (inactive)	2.16 µM (active)	8.63 µM (active)	35.4 µM (active)	CN1CCC(CNc2ccc3ncc(-c4cccc(OC(F)(F)F)c4)n3n2)CC1 [SGI-1776]
> 30 µM (inactive)	> 30 µM (inactive)	> 30 µM (inactive)	> 30 µM (inactive)	> 30 µM (inactive)	> 30 µM (inactive)	> 30 µM (inactive)	> 30 µM (inactive)	> 30 µM (inactive)	> 30 µM (inactive)	> 30 µM (inactive)	C[C@@H]1CN(Cc2ccc(F)cc2)[C@@H](C)CN1C(=O)c1cc2c(C(=O)C(=O)N(C)C)cn(C)c2cc1Cl [TALMAPIMOD]
> 30 µM (inactive)	> 30 µM (inactive)	> 30 µM (inactive)	> 30 µM (inactive)	> 30 µM (inactive)	> 30 µM (inactive)	> 30 µM (inactive)	> 30 µM (inactive)	> 30 µM (inactive)	> 30 µM (inactive)	> 30 µM (inactive)	O=c1sn(-c2cccc3ccccc23)c(=O)n1Cc1ccccc1 [TIDEGLUSIB]
> 30 µM (inactive)	> 30 µM (inactive)	> 30 µM (inactive)	> 30 µM (inactive)	1.35 µM (active)	> 30 µM (inactive)	2.02 µM (active)	2.38 µM (active)	4.62 µM (active)	> 30 µM (inactive)	> 30 µM (inactive)	COc1cc2nccc(Oc3ccc(NC(=O)Nc4cc(C)on4)c(Cl)c3)c2cc1OC [TIVOZANIB]
> 30 µM (inactive)	> 30 µM (inactive)	> 30 µM (inactive)	> 30 µM (inactive)	> 30 µM (inactive)	> 30 µM (inactive)	> 30 µM (inactive)	> 30 µM (inactive)	> 30 µM (inactive)	> 30 µM (inactive)	> 30 µM (inactive)	CC(=O)Nc1cccc(-n2c(=O)n(C3CC3)c(=O)c3c(Nc4ccc(I)cc4F)n(C)c(=O)c(C)c32)c1 [TRAMETINIB]

SMILES	Kd [1]	Kd [2]	Kd [3]	Kd [4]	Kd [5]	Kd [6]	Kd [7]	Kd [8]	Kd [9]	Kd [10]	Kd [11]
C=CC(=O)N1CCC(Oc2cc3c(Nc4ccc(Cl)c(Cl)c4F)ncnc3cc2OC)CC1 [POZIOTINIB]	> 30 µM (inactive)	> 30 µM (inactive)	> 30 µM (inactive)	> 30 µM (inactive)	0.392 µM (active)	> 30 µM (inactive)	> 30 µM (inactive)	> 30 µM (inactive)	> 30 µM (inactive)	> 30 µM (inactive)	> 30 µM (inactive)
CN1CCC(COc2cnc(-c3cccc(Cn4nc(-c5cccc(C#N)c5)ccc4=O)c3)nc2)CC1 [TEPOTINIB]	> 30 µM (inactive)	> 30 µM (inactive)	> 30 µM (inactive)	> 30 µM (inactive)	> 30 µM (inactive)	> 30 µM (inactive)	> 30 µM (inactive)	> 30 µM (inactive)	> 30 µM (inactive)	> 30 µM (inactive)	> 30 µM (inactive)
